According to PMC7304243, “Dimeric γ-AApeptides With Potent and Selective Antibacterial Activity” (Frontiers in Chemistry, 2020):
Where two headings read alike, the source gives them in different places.

Legend:
MRSA [1] = assay: Drug resistance study, 20 passages; assay type: cell-based, Staphylococcus aureus
Protocol: Drug resistance has already been recognized as one of the fastest growing threats all over the world. […] The MIC of compound 2 was determined daily, and then the bacteria suspension with half of the MIC was diluted to 10^6 CFU/mL and incubated with compound to test its activity until 20 passages had been reached.
The experiment was carried out by following our previously reported protocol (Su et al., [2017]; Niu et al., [2018]). The study was conducted for 20 passages.

[2] = system: vancomycin-resistant E. faecalis (VRE, ATCC 700802); assay type: cell-based; conditions: lowest concentration that completely inhibits growth, repeated three times
Protocol: (§1) Having obtained all compounds, their antibacterial efficacy was subsequently evaluated by measuring the minimum inhibitory concentration (MIC). Three significant resistant bacteria, including methicillin-resistant Staphylococcus aureus (MRSA) (ATCC 33591), Staphylococcus epidermidis (MRSE) (RP62A), and vancomycin-resistant E. faecalis (VRE) (ATCC 700802), were chosen for our studies. Meanwhile, hemolytic activity (HC50) was also measured to assess the selectivity of these compounds toward bacteria and blood cells. […] Importantly, HC50 of almost all compounds are equal or more than 250 μg/mL. […] This is consistent with our previous findings that significant hydrophobicity, particularly two long alkyl tails, could form hydrophobic clusters that prevent the formation of amphipathic structures necessary for antimicrobial activity (Li et al., [2014b]; Singh et al., [2018]). […] MICs of 10–14 unveiled that proper bulky hydrophobic groups were beneficial in the design of bactericide. These five compounds have the same (3r,5r,7r)-1-methyladamantane side chain but different tails, including C9, as well as C11 alkyl chain, ethylbenzene, and (3r,5r,7r)-1-methyladamantane. Among them, 10, which had no tail, was the best toward MRSA and MRSE, with the MICs of 5 μg/mL and 2 μg/mL respectively. […] Compounds 7 and 8 also shared a similar trend. It appears that compounds with bulky groups have better activity, due to the lager molecular volume or shorter molecular length of these bulky groups. Therefore, the selection of proper hydrophobic bulky groups when designing HDP-mimicking agents is considerably crucial (Wu et al., [2012]; Teng et al., [2016a]).
(§2) The antimicrobial assay of the compounds was conducted on the following three bacteria strains: methicillin-resistant S.aureus (MRSA, ATCC 33591), methicillin-resistant S. epidermidis (MRSE, RP62A), and vancomycin-resistant E. faecalis (VRE, ATCC 700802). The procedures were followed as reported previously. […] All measurements were repeated at least three times with duplicates each time.

[3] = system: methicillin-resistant S. epidermidis (MRSE, RP62A); assay type: cell-based, Staphylococcus epidermidis; conditions: lowest concentration that completely inhibits growth, repeated three times
Protocol: as §1, §2

[4] = system: red blood cell (RBC) of mice; assay: Hemolysis study (HC50); assay type: cell-based
Protocol: Fresh red blood cell (RBC) of mice was collected by centrifuge with the speed of 500 g for 10 mins until the supernatant is clear. Then, the RBC was diluted with PBS for 20-fold. After adding 50 μL PBS in each vial on 96 plates, 1 mg/mL compounds were serial diluted until reaching the lowest concentration 1.9 μg/mL. Diluted RBC was added into each vial and incubated at 37°C for 1 h. Then, plates were centrifuged at 2,301 g (3,500 rpm) for 10 mins. 30 uL supernatant in each vial was added into 100 μL PBS and read Biotek Synergy HT plate reader at 540 nm. The hemolytic activity was calculated by the formula % hemolysis = (Abssample-AbsPBS) / (AbsTriton-AbsPBS) × 100%. 1% Triton X-100 were used as the positive control and 1 × PBS buffer was used as the negative control.

[5] = system: methicillin-resistant S. aureus (MRSA, ATCC 33591); assay type: cell-based, Staphylococcus aureus; conditions: lowest concentration that completely inhibits growth, repeated three times
Protocol: as §1, §2

MRSA [6] = assay: Membrane depolarization study, DiSC3(5); assay type: cell-based, Staphylococcus aureus; conditions: MRSA 10^6 CFU/mL, 1 μM DiSC3(5), compound added after 30 min, ex 622 nm / em 670 nm
Text: HDPs are known to act on the bacterial membrane. As the mimics of HDPs, compounds 1–14 were also expected to kill bacteria through disintegrating the bacterial cell membrane. To this end, 3, 3′- Dipropylthiadicarbocyanine iodide [DiSC3(5)] was used as a fluorogenic probe to detect and measure changes in transmembrane potential. Briefly, fluorescence intensity is very weak when it accumulates on hyperpolarized membranes due to their self-quenching (Niu et al., [2018]). […] This method was used to initially determine the bacterial membrane permeability caused by the compound 2.
Mid log phase MRSA bacteria solution was obtained as above. Then, cells were collected and washed with 5 mM HEPES and 5 mM glucose respectively. 5 mM HEPES:5 mM glucose:100 mM KCl = 1:1:1 was used to resuspended bacteria cells (10^6 CFU/mL). Following that, 200 μL of bacterial suspension and 1 μM DiSC3(5) were included in a 96-well plate, and the fluorescence of the suspension was monitored at room temperature for 30 min at excitation wavelength of 622 nm and emission wavelength of 670 nm. After 30 min, compound 2 was added to the wells and the increased potential was monitored. The experiment was repeated three times with duplicates each time.

MRSA [7] = assay: TEM study; assay type: cell-based, Staphylococcus aureus; conditions: MRSA 10^6 CFU/mL, 6 μg/mL, 2 h
Protocol: Transmission electron microscopy (TEM) is a straightforward method to visualize the interruptive effect of compounds on the membrane of bacteria. Mid log phase MRSA without the treatment of compound 2 had intact membrane (Figure 5A).
After being incubated to mid log phase, MRSA(10^6 CFU/mL) was mixed with 6 μg/mL compound 2 for 2 h. Then the bacteria cells were collected and washed with PBS and DI water. Following that, bacteria was resuspended in deionized water. Control bacterial samples were obtained without adding drugs. Above samples were applied to TEM grids by 5 μL bacteria solution, and the grids were allowed to dry in vacuum oven at the temperature of 45°C for 45 seconds. After being dried, TEM images were obtained on a FEI Morgagni 268D TEM with an Olympus MegaView III camera at 60 kV on the microscope. The microscope used AnalySiS software to run the camera.

MRSA [8] = assay: Time-kill kinetics; assay type: cell-based, Staphylococcus aureus
Protocol: Time-kill kinetic study of compound 2 were investigated. After being incubated from one colony in 4 mL TSB medium overnight at 37 °C while shaking, MRSA was diluted 2,500 times to another fresh 4 mL TSB solution and grew for 6~8 h to mid-logarithmic phase. Suspension [10^6 colony-forming units per milliliter (CFU/mL) according to the read of OD value] was made and then incubated with different concentration of 2 at 37°C for 10 min, 30 min, 60 min, 120 min respectively. The MRSA and drug mixture were diluted 10^2-fold and spread on the TSB agar plates. These plates were incubated at 37°C overnight. The numbers of colonies on each plate were transferred to lg[CFU/mL] and plotted against the incubation time. The experiment was repeated three times with duplicates each time.

MRSA [9] = assay: Fluorescence microscopy, DAPI and PI; assay type: cell-based, Staphylococcus aureus; conditions: 6 μg/mL, 2 h
Protocol: Experiments of fluorescent microscopy is also a broadly used method to determine the integrity of bacteria membrane. Propidium iodide (PI) and 4′,6-diamidino-2-henylindole (DAPI) are commercially available dyes that stain dead or injured cells with compromised membrane and all cells irrespective of their viability, respectively. The efficacy of compound 2 to interrupt the bacterial membrane was evaluated by these two dyes.
Fluorescent dyes propidium iodide (PI) and 4′,6′-diamidino-2-phenylindole dihydrochloride (DAPI) can be used to distinguish the viable cell from the dead cells. After obtaining the mid-logarithmic phase bacteria solution as above, the bacteria solution was diluted 100 times and mixed with compound 2 at the concentration of 6 μg/mL. Then the mixture was incubated 2 h and centrifuged at 1,690 g (3,000 rpm) for 15 min at 4°C to harvest the cells. After washing with PBS for 3 times, PI (5 μg/mL) and DAPI (10 μg/mL) was used to dye cells 20 min respectively. Controls were carried out without compounds. The bacterial cells were then visualized and analyzed by employing the LEICA DM 2000 optical microscope with an oil-immersion objective (40 ×). The experiment was repeated three times with duplicates each time.

[10] = mouse RBC in PBS, 37°C, 1 h, absorbance 540 nm, 1% Triton X-100 positive control

Compound	MIC VRE [2] [µg/mL]	MIC MRSE [3] [µg/mL]	Hemolysis (HC50) [4, 10] [µg/mL]	MIC MRSA [5] [µg/mL]	also measured
CCn1cc(C(=O)O)c(=O)c2cc(F)c(N3CCNCC3)cc21 [norfloxacin, reference compound]	–	–	–	–	Increase of MIC after 20 passages (MRSA [1]; 20 passages): 10 fold
CCCCCCCCCCCCCC(=O)N(CC(=O)Nc1ccc(NC(=O)CN(C[C@@H](N)CCCCN)C(=O)CCCCCCCCCCCCC)cc1)C[C@@H](N)CCCCN [Compound 4, N,N'-((1,4-phenylenebis(azanediyl))bis(2-oxoethane-2,1-diyl))bis(N-(2,6-diaminohexyl)tetradecanamide)]	>25	>25	>250	>25	–
CCCCCCCCCCCCCCCC(=O)N(CC(=O)Nc1ccc(NC(=O)CN(C[C@@H](N)CCCCN)C(=O)CCCCCCCCCCCCCCC)cc1)C[C@@H](N)CCCCN [Compound 5, N,N'-((1,4-phenylenebis(azanediyl))bis(2-oxoethane-2,1-diyl))bis(N-(2,6-diaminohexyl)palmitamide)]	>25	>25	>250	>25	–
N-(2-(2-((1s,3s)-adamantan-1-yl)acetamido)-6-aminohexyl)-N-(2-((4-(2-(N-(2-(2-((3r,5r,7r)-adamantan-1-yl)acetamido)-6-aminohexyl) decanamido) acetamido) phenyl) amin)−2-oxoethyl)decanamide [Compound 7]	20	2	–	10	Hemolysis (HC50) [4]: 250 µg/mL
CCCCCCCCCC(=O)N(CC(=O)Nc1ccc(NC(=O)CN(C[C@@H](N)CCCCN)C(=O)CCCCCCCCC)cc1)C[C@@H](N)CCCCN [Compound 2, N,N'-((1,4-phenylenebis(azanediyl))bis(2-oxoethane-2,1-diyl))bis(N-(2,6-diaminohexyl)decanamide)]	–	–	–	–	DiSC3(5) fluorescence intensity after adding compound (MRSA [6]): fluorescence intensity increased dramatically; TEM observation of treated MRSA (MRSA [7]): large amount of cell debris can be detected; Time-kill result at 6 μg/mL (MRSA [8]; MRSA 10^6 CFU/mL, 6 μg/mL, 37°C, up to 120 min): still colonies after 120 mins; Time in which all bacteria were eradicated (MRSA [8]; MRSA 10^6 CFU/mL, 12 μg/mL, 37°C): ≤ 120 min; Time in which all bacteria were eradicated (MRSA [8]; MRSA 10^6 CFU/mL, 24 μg/mL, 37°C): ≤ 120 min; Time to eradicate MRSA (MRSA [8]; abstract statement, concentration not given): ≤ 2 h; DAPI / PI staining of treated MRSA (MRSA [9]): fluorescence could be detected in both channels; Change of MIC values after 20 passages (MRSA [1]; 20 passages at half of the MIC): almost unchanged
CCCCCCCCCC(=O)N[C@@H](CCCCN)CN(CC(=O)Nc1ccc(NC(=O)CN(C[C@H](CCCCN)NC(=O)CCCCCCCCC)C(=O)CC23CC4CC(CC(C4)C2)C3)cc1)C(=O)CC12CC3CC(CC(C3)C1)C2 [Compound 11, N,N'-((((1,4-phenylenebis(azanediyl))bis(2-oxoethane-2,1-diyl))bis ((2-((3r,5r,7r)-adamantan-1-yl)acetyl)azanediyl))bis(6-aminohexane-1,2-diyl))bis(decanamide)]	>25	>25	>250	>25	–
